# Data from patent publication US9006487B2, “Amine-containing lipids and uses thereof” (Massachusetts Institute of Technology, priority 2005, dated 2015).
# Several values for one entry are separate records, joined by “and”; a condition that tells them apart may be missing. Equal entries are not always repeated.
# Legend:
# Assay type in all cases: cell-based
# cos-7 cells = assay: DNA transfection: luciferase expression relative to Lipofectamine 2000; settings: for luciferase expression (second part of table, values relative to LIPO2000): 300 ng of DNA per well; for Luciferase expression as a percentage of that achieved using Lipofectamine 2000: 300 ng Luciferase DNA per well; for Luciferase expression as a percentage of that achieved using Lipofectamine 2000 / % of the luciferase activity obtained from the use of Lipofectamine 2000: luciferase assay after 48 hours; for % of the luciferase activity obtained from the use of Lipofectamine 2000: 300 ng DNA per well
# Summary of the method: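 cos-7 cells were transfected with 300 ng/well luciferase DNA complexed with lipid at ratios from 2.5 to 25 w/w. Bright-Glo luminescence was read after 48 hours and converted to ng luciferase by standard curve. Data are percent of the Lipofectamine 2000 control (2.5 w/w).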
# [1] = system: renilla and firefly luciferases; assay: siRNA delivery: reporter-protein (renilla luciferase) knockdown relative to Lipofectamine 2000, firefly luciferase as viability control; settings: 50 ng of siRNA per well
# Procedure: Reporter-protein knockdown achieved by the top transfecting lipids relative to Lipofectamine™ 2000 (where negative values indicate improved knockdown). The assay accounts for toxicity, monitoring expression of both renilla and firefly luciferases, where the latter serves as viability control. For each lipid, 50 ng of siRNA was added per well at specific lipid/RNA w/w ratios (from top to bottom: 2.5, 5, 10, 15).
# [2] = DNA delivery: raw luciferase expression (relative light units) of best-transfecting lipids; settings: 300 ng of DNA per well
# Procedure: Raw values for luciferase expression (relative lights units) of best-transfecting lipids at lipid/DNA (w/w) ratios listed. 300 ng of DNA was added per well.
# [3] = 1st column, no head printed (2.5 w/w by the raw values)
# [4] = 2nd column, no head printed (5 w/w by the raw values)
# [5] = 3rd column, no head printed (10 w/w by the raw values)
# [6] = 4th column, no head printed (15 w/w by the raw values)
SMILES,"luciferase expression (second part of table, values relative to LIPO2000) (cos-7 cells; lipid/DNA 2.5 w/w)","luciferase expression (second part of table, values relative to LIPO2000) (cos-7 cells; lipid/DNA 5 w/w)","luciferase expression (second part of table, values relative to LIPO2000) (cos-7 cells; lipid/DNA 10 w/w)","luciferase expression (second part of table, values relative to LIPO2000) (cos-7 cells; lipid/DNA 15 w/w)","luciferase expression, second set of columns (replicate set of data) (cos-7 cells; [3])","luciferase expression, second set of columns (replicate set of data) (cos-7 cells; [4])","luciferase expression, second set of columns (replicate set of data) (cos-7 cells; [5])","luciferase expression, second set of columns (replicate set of data) (cos-7 cells; [6])",Reporter-protein knockdown relative to Lipofectamine 2000 (negative values indicate improved knockdown) ([1]; lipid/RNA 2.5 w/w),Reporter-protein knockdown relative to Lipofectamine 2000 (negative values indicate improved knockdown) ([1]; lipid/RNA 5 w/w),Reporter-protein knockdown relative to Lipofectamine 2000 (negative values indicate improved knockdown) ([1]; lipid/RNA 10 w/w),Reporter-protein knockdown relative to Lipofectamine 2000 (negative values indicate improved knockdown) ([1]; lipid/RNA 15 w/w),Raw values for luciferase expression ([2]; lipid/DNA 2.5 w/w),also measured
CCCCCCCCCCCCNC(=O)CCN(CCC(=O)NCCCCCCCCCCCC)CCN(CCC(=O)NCCCCCCCCCCCC)CCC(=O)NCCCCCCCCCCCC [ND99],16.8,36.5,78.6,91.7,132.7,97.5,6.8,2.2,−10.1961,−9.86,−18.2728,−20.0273,10252260 relative lights units and 11757295 relative lights units,Raw values for luciferase expression ([2]; lipid/DNA 5 w/w): 9886021 relative lights units and 7656193 relative lights units
CCCCCCCCCCCCCCCNC(=O)CCN(CC)CCCN(CC)CCC(=O)NCCCCCCCCCCCCCCC [NG64],,,,,,,,,−11.7697,−34.6712,3.073,1.439,2585784 relative lights units,Raw values for luciferase expression ([2]; lipid/DNA 5 w/w): 1972838 relative lights units
CCCCCCCCCCCCNC(=O)CCN(CCC(=O)NCCCCCCCCCCCC)CCN(CCC(=O)NCCCCCCCCCCCC)CCN(CCC(=O)NCCCCCCCCCCCC)CCN(CCC(=O)NCCCCCCCCCCCC)CCC(=O)NCCCCCCCCCCCC [ND98],22.2,5.3,0.5,0.4,78.4,65.8,26.0,9.2,−4.005,−4.482,−4.634,−13.9514,5649897 relative lights units and 6947385 relative lights units,"luciferase expression (second part of table, values relative to LIPO2000) (cos-7 cells; lipid/DNA 20 w/w): 0.4; luciferase expression (second part of table, values relative to LIPO2000) (cos-7 cells; lipid/DNA 25 w/w): 0.3; Raw values for luciferase expression ([2]; lipid/DNA 10 w/w): 1824773 relative lights units; Raw values for luciferase expression ([2]; lipid/DNA 15 w/w): 643862 relative lights units"
CCCCCCCCCCCCCCNC(=O)CCN(C)CCCN(CCC(=O)NCCCCCCCCCCCCCC)CCC(=O)NCCCCCCCCCCCCCC [NF96],221.5,44.3,0.2,0.1,79.4,40.8,29.2,2.4,−6.262,−2.035,63.2,90.8142,,Raw values for luciferase expression ([2]; lipid/DNA 10 w/w): 2048655 relative lights units; Raw values for luciferase expression ([2]; lipid/DNA 15 w/w): 167043 relative lights units
CCCCCCCCCCCCCCCOC(=O)CCN(CCCN(C)C)CCC(=O)OCCCCCCCCCCCCCCC [LG80],,,,,,,,,2.007,−9.09,−15.9409,−21.0263,,Luciferase expression as a percentage of that achieved using Lipofectamine 2000 (cos-7 cells; lipid/DNA 2.5 w/w): 2.2%; Luciferase expression as a percentage of that achieved using Lipofectamine 2000 (cos-7 cells; lipid/DNA 5 w/w): 11.9%; Luciferase expression as a percentage of that achieved using Lipofectamine 2000 (cos-7 cells; lipid/DNA 10 w/w): 19.8%; Luciferase expression as a percentage of that achieved using Lipofectamine 2000 (cos-7 cells; lipid/DNA 15 w/w): 31.3%; Luciferase expression as a percentage of that achieved using Lipofectamine 2000 (cos-7 cells; lipid/DNA 20 w/w): 21.9%; Luciferase expression as a percentage of that achieved using Lipofectamine 2000 (cos-7 cells; lipid/DNA 25 w/w): 17.4%
CCCCCCCCCCCCOC(=O)CCN(CCOCCO)CCC(=O)OCCCCCCCCCCCC [LD31],44.2,38.7,18.8,11.3,,,,,15.3558,−7.897,−15.5821,−16.8831,,"Luciferase expression as a percentage of that achieved using Lipofectamine 2000 (cos-7 cells; lipid/DNA 2.5 w/w): 44.2%; Luciferase expression as a percentage of that achieved using Lipofectamine 2000 (cos-7 cells; lipid/DNA 5 w/w): 38.7%; Luciferase expression as a percentage of that achieved using Lipofectamine 2000 (cos-7 cells; lipid/DNA 10 w/w): 18.8%; Luciferase expression as a percentage of that achieved using Lipofectamine 2000 (cos-7 cells; lipid/DNA 15 w/w): 11.3%; Luciferase expression as a percentage of that achieved using Lipofectamine 2000 (cos-7 cells; lipid/DNA 20 w/w): 42.8%; luciferase expression (second part of table, values relative to LIPO2000) (cos-7 cells; lipid/DNA 20 w/w): 42.8; Luciferase expression as a percentage of that achieved using Lipofectamine 2000 (cos-7 cells; lipid/DNA 25 w/w): 174.1%; luciferase expression (second part of table, values relative to LIPO2000) (cos-7 cells; lipid/DNA 25 w/w): 174.1"
CCCCCCCCCCCCCOC(=O)CCN(CCCN(CCO)CCO)CCC(=O)OCCCCCCCCCCCCC [LE87],,,,,,,,,5.504,−6.923,−8.533,−15.2929,,% of the luciferase activity obtained from the use of Lipofectamine 2000 (cos-7 cells; 2.5 w/w lipid to DNA): 10.5%; % of the luciferase activity obtained from the use of Lipofectamine 2000 (cos-7 cells; 5 w/w lipid to DNA): 9.0%; % of the luciferase activity obtained from the use of Lipofectamine 2000 (cos-7 cells; 10 w/w lipid to DNA): 38.4%; % of the luciferase activity obtained from the use of Lipofectamine 2000 (cos-7 cells; 15 w/w lipid to DNA): 4.3%; % of the luciferase activity obtained from the use of Lipofectamine 2000 (cos-7 cells; 20 w/w lipid to DNA): 0.0%; % of the luciferase activity obtained from the use of Lipofectamine 2000 (cos-7 cells; 25 w/w lipid to DNA): 0.0%
